“And” between values parts separate entries of the source, which are not always exact repeats. Equal entries are not always repeated.
Experiments:
[1] = biological target: Fibroblast growth factor receptor 3 (Homo sapiens) (UniProt P22607); settings: Compound concentration 20.0 uM, Protein concentration 2.0 uM, Result type QC Liability
Description: Thermal Shift Assay. Domain: start/stop: P449-E759

Peregrin (Homo sapiens) = biological target: T1, Peregrin (Homo sapiens) (UniProt P55201); settings: Compound concentration 20.0 uM, Protein concentration 2.0 uM, Result type QC Liability
T1 sequence (whole entry): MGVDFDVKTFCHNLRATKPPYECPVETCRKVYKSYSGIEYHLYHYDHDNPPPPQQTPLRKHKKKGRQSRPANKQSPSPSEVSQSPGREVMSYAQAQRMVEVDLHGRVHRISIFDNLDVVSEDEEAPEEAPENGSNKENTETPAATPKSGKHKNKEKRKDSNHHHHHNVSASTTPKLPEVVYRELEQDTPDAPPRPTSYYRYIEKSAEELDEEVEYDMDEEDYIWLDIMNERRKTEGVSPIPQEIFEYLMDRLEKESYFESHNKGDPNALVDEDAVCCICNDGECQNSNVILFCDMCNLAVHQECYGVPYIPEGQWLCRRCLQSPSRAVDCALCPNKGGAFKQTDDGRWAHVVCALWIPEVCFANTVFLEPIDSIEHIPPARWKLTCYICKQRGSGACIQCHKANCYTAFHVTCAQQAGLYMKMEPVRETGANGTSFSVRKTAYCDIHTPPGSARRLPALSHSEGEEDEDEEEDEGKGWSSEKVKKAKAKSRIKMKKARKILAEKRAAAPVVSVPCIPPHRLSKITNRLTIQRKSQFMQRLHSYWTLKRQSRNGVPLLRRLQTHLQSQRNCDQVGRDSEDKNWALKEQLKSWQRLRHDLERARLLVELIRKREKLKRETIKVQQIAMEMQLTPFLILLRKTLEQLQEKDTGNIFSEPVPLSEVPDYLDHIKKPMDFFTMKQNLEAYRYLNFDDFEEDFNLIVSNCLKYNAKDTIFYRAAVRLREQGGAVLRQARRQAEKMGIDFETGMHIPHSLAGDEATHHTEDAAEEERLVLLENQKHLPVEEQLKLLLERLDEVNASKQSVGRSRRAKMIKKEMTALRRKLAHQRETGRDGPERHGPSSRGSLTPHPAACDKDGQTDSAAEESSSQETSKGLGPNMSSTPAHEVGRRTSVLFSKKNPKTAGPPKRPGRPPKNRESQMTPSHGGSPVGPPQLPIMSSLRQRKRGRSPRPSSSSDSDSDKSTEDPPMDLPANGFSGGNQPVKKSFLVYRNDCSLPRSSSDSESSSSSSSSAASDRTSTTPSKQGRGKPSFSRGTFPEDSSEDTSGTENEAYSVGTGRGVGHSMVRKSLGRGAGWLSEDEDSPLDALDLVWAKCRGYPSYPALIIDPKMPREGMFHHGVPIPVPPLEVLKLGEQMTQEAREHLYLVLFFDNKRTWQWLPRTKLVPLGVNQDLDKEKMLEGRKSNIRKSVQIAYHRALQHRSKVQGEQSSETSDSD

Sequence of Fibroblast growth factor receptor 3 (Homo sapiens) (P22607 23-806 limits assumed): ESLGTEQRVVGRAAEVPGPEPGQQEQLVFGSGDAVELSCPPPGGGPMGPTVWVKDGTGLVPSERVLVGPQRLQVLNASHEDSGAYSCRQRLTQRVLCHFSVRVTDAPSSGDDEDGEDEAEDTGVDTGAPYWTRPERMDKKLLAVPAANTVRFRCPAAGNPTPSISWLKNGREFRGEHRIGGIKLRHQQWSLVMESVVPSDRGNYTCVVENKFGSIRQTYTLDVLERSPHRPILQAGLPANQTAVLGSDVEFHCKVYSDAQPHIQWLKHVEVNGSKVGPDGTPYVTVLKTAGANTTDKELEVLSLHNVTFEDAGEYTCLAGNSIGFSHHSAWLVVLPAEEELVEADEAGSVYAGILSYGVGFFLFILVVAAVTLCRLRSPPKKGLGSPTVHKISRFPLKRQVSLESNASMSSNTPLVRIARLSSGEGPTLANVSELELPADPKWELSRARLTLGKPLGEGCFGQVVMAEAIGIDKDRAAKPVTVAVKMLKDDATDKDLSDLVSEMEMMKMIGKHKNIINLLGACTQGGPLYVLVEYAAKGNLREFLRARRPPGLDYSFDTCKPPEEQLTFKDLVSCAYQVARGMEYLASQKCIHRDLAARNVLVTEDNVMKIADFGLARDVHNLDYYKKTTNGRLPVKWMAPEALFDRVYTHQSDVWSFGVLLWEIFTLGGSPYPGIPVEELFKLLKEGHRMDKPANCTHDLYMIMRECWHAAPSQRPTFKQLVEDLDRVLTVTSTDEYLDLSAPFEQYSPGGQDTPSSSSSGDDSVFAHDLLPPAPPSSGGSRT

Compound | ΔTm [1] | ΔTm (Peregrin (Homo sapiens))
Cc1cc(C)nc(Nc2ncc(C(=O)NCCc3c(C)[nH]c4ccccc34)cn2)c1 | 0.85 °C | -2.14 °C
N=C(N)NCCC[C@H](NC(=O)CC1(CC(=O)N2CCN(C(c3ccccc3)c3ccccc3)CC2)CCCC1)C(=O)NCc1ccccc1 | 0.22 °C | -4.91 °C
CNc1ncc2cc(-c3ccc(-c4cccc(C)n4)cc3Cl)c(=O)n(C[C@H]3OC[C@H](N)CO3)c2n1 | 1.85 °C | -2.41 °C
Oc1c(-c2cccnc2)cnn1-c1ccccn1 | 0.56 °C | -1.78 °C
c1ccc(C2CCN(c3cnc4c(N5CCOCC5)nccn34)CC2)cc1 | 0.73 °C | -0.86 °C
COc1ccc(F)c(F)c1C(=O)c1cnc(NC2CCN(S(C)(=O)=O)CC2)nc1N | 1.01 °C | -0.92 °C
N#CC[C@H](C1CCCC1)n1cc(-c2ncnc3[nH]ccc23)cn1 | 3.43 °C | 0.48 °C
Cc1cccc(-c2[nH]c(CNc3ccccc3F)nc2-c2ccc3ncnn3c2)n1 | 4.08 °C | 0.68 °C
CO[C@H]1C[C@@H]2CC[C@@H](C)[C@@](O)(O2)C(=O)C(=O)N2CCCC[C@H]2C(=O)O[C@H]([C@H](C)C[C@@H]2CC[C@@H](O)[C@H](OC)C2)CC(=O)[C@H](C)/C=C(\C)[C@@H](O)[C@@H](OC)C(=O)[C@H](C)C[C@H](C)/C=C/C=C/C=C/1C | 0.26 °C | -1.78 °C
CCO[C@H](COc1ccc(C(F)(F)F)cc1)CSc1ccc(OCC(=O)O)c(C)c1 | 0.48 °C | -0.87 °C
C=C[C@@]12CCc3cc(O)ccc3[C@H]1CC[C@@]1(C)[C@H]2CC[C@@H]1O | 0.31 °C | -6.72 °C
O=C(Cc1ccccc1[N+](=O)[O-])Nc1ccc(-c2ccc(C(O)(C(F)(F)F)C(F)(F)F)cc2F)cc1 | 1.47 °C | 1.8 °C
O=C(O)Cc1ccc(CCNS(=O)(=O)c2ccc(Cl)cc2)cc1 | 0.43 °C | -2.91 °C
CCCCCNC(=O)N1CCC(CN(Cc2ccc(Cl)cc2)Cc2ccc([N+](=O)[O-])s2)C1 (stereo not drawn) | 0.77 °C | -0.19 °C
O=C(NCc1ccc(F)cc1)C1CCN(S(=O)(=O)c2cc(Cl)cc(Cl)c2)CC1 | 0.9 °C | -1.81 °C
CCOC(=O)c1ccc(CN(Cc2ccc(-c3cccc(S(C)(=O)=O)c3)cc2)S(=O)(=O)c2c(C)cc(C)cc2C)o1 | -1.46 °C | -3.02 °C
CN(C1CCc2c(c3ccccc3n2CC(=O)O)C1)S(=O)(=O)c1ccc(F)cc1 (stereo not drawn) | 0.46 °C | -2.54 °C
OCC1OC(n2cnc3cc(Cl)c(Cl)cc32)C(O)C1O (stereo not drawn) | 0.39 °C | -1.16 °C

Compound | ΔTm [1] | ΔTm (Peregrin (Homo sapiens))
CNC(=O)COc1cc2cc(Nc3nc(N4CCC(C(=O)N(C)C)CC4)ncc3Cl)cc(OC)c2n(C)c1=O | 0.39 °C | -2.49 °C
CCCN1C(=O)c2ccc(Cl)cc2Nc2ncccc21 | 1.35 °C | -3.34 °C
CN1CCC(C#N)(NC(=O)[C@@H](NC(=O)N2CCOCC2)C(C)(C)C)CC1 | 0.67 °C | -2.33 °C
C[C@@H](COCCC(=O)N1CCN(c2ncc(C(F)(F)F)cn2)CC1)Nc1cn[nH]c(=O)c1C(F)(F)F | 0.48 °C | -0.15 °C
FC(F)c1cncc(-c2ccc3ncc4nnc(C5=CCCOCC5)n4c3c2)c1 | 0.51 °C | -2.16 °C
O=C(O)/C=C/c1ccc(Cn2ccnc2)cc1 | 0.54 °C | -2.72 °C
Cc1cn([C@H](C)CC#N)c(=O)c2cc(Cn3nc(C(F)F)cc3Cl)nn12 | 0.78 °C | -1.09 °C
Cn1cc(NC(=O)c2ccc3nc4n(c3c2)CCCNC4=O)nc1C(=O)NC1CCCC1 | 1.76 °C | -0.88 °C
CC(C)(C)c1cnc(CSc2cnc(NC(=O)C3CCNCC3)s2)o1 | 0.5 °C | -1.47 °C
CC(C)N(C(=O)C1CCOCC1)c1cc(F)c(Oc2ncc(Cn3nccn3)cc2C(F)(F)F)cc1C(=O)O | 0.39 °C | -3.32 °C
C[C@]12CC[C@@H]3c4ccc(C(N)=O)cc4CC[C@H]3[C@@H]1CC=C2c1cncc(F)c1 | 0.92 °C | -4.27 °C
Cc1c(NC(=O)COc2ccc(Cl)cc2C(=O)c2cc(F)cc(C(F)(F)F)c2)ccc(C(=O)O)c1F | 0.45 °C and 3.99 °C | -2.51 °C and -1.17 °C
N#Cc1c(SCc2csc(-c3ccc(Cl)cc3)n2)nc(N2CCCC2)c(C#N)c1-c1ccc(OCCO)cc1 | 1.06 °C | -3.79 °C
CC(=O)N1CCC(c2ccc(C(=O)NC(=N)N)cc2C(F)(F)F)CC1 | 1.29 °C | -2.69 °C
Cc1c(N2CCNCC2)nc2ccc(Br)cc2c1C(=O)NC[C@H](CCC(=O)O)c1ccccc1Cl | 0.57 °C | -2.38 °C
CN[C@@H](C)C(=O)N[C@H](C(=O)N1CCC[C@H]1c1nc(C(=O)c2ccc(F)cc2)cs1)C1CCCCC1 | 0.96 °C | -1.91 °C
CC(=O)Nc1nc(C)c(S(=O)(=O)Nc2ccc(C(O)(C(F)(F)F)C(F)(F)F)cc2)s1 | 0.63 °C | -0.9 °C
CC1(C)CCN(C(=O)C2CN(c3c4c(nc5ccnn35)CCNCC4)C2)C1 | 0.72 °C | -2.26 °C

Next, values leading:

ΔTm [1] | ΔTm (Peregrin (Homo sapiens)) | Compound
3.87 °C | -1.39 °C | CC(C)C(=O)N[C@@H]1CCN(C(=O)Nc2nc3c(s2)-c2nc(-c4ccccc4Cl)ncc2CC3)C1
2.82 °C | -8.76 °C | CCOC(=O)CS(=O)(=O)c1ccc([C@@H](CO)NC(=O)c2cc3c(Cl)c(Cl)c(C)cc3n2C)cc1
0.27 °C | -1.84 °C | CN1Cc2nccc(-c3cn(C)nc3-c3ccc(F)cc3)c2C1=O
-0.05 °C | -3.8 °C | O=C(O)C[C@H]1CCn2c1c(Sc1ccc(Cl)cc1)c1ccc(F)cc12
3.51 °C | -0.87 °C | CN(C)CC#Cc1ccc2[nH]c3c(c2c1)-c1nc(N)ncc1CCC3
0.81 °C | -9.42 °C | c1ccc2c(c1)SCc1c-2[nH]c2ccccc12
9.18 °C | -1.23 °C | CC1(C)C(=O)N([C@H]2CCc3c(O)cccc32)c2nc(Nc3cccc(CN4CCCC4)c3)ncc21
0.73 °C | 0.36 °C | CN1C(=O)Cc2ccc(-c3ccc(C[C@@H](C#N)NC(=O)[C@H]4N[C@@H]5CC[C@H]4C5)c(F)c3)cc21
0.51 °C | -2.28 °C | O=C(O)CCC/C=C\C[C@@H]1[C@@H](/C=C/[C@@H](O)COc2cccc(C(F)(F)F)c2)[C@H](O)C[C@@H]1O
7.35 °C | -1.84 °C | CC(C)NC(=O)[C@H]1CCC[C@H]1Nc1nc(Nc2ccc(CN(C)C)cc2)ncc1Br
2.23 °C | -1.15 °C | CN1CCN(C(=O)c2ccc3cc2OCCOCCNc2ccn4ncc-3c4n2)CC1
2.59 °C | -1.74 °C | CCc1ccccc1C(=O)Nc1n[nH]c2c(C)c(F)c(C3C(C#N)=C(C)N(C)C(C)=C3C#N)cc12
1.41 °C | -2.19 °C | Cc1cnc(-c2cnc(NCCNc3ccc(C#N)cn3)nc2-c2ccc(Cl)cc2Cl)[nH]1
2.52 °C | -1.21 °C | Cc1cc(C2CCCNC2)ccc1Nc1ncc(Br)c(NCc2cccc3c2C(C)(C)C(=O)N3)n1 (stereo not drawn)
1.99 °C | -0.86 °C | NC(=O)c1sc2nc(N3CCC(NC[C@H](O)c4ccccn4)CC3)cc(C(F)(F)F)c2c1N
0.16 °C | -0.84 °C | COc1ccc(-c2csc(NC(=O)[C@H]3CCCCN3S(=O)(=O)c3ccc(C)cc3)n2)cc1
0.68 °C | -1.47 °C | CN(CCCCCCC1=C(c2cc(F)cc(F)c2)CCCc2cc(O)ccc21)CCCCS(=O)(=O)CCCC(F)(F)F
0.51 °C | -2.92 °C | CC(C(=O)Nc1cc(C#N)ccc1CCCC(=O)O)c1ccc(F)c2ccccc12 (stereo not drawn)

Source: ChEMBL document CHEMBL5308504, “Tm Shift (DSF) assay results for EUbOPEN Chemogenomics Library” (2023)
